14 compounds from PMC6804113, “Cyclic Peptides Acting as Allosteric Inhibitors of Human Thymidylate Synthase and Cancer Cell Growth” (Molecules, 2019) can be followed below.

Molecules are shown by their SMILES. Where two headings read alike, the source gives them in different places. Starred links: 1 amine or outer side, 2 acyl side, 3 side chain; linkers in the order of their positions; H or OH if unused. Positions of bridges follow the written chain, without caps; N, C: chain ends. Non-standard residues stand in square brackets, D forms with d. Residues, ends and D or L forms follow the SMILES beside them. Cysteamide = C(CS[*:3])N[*:1]

The conditions of data set [1]: disulfide bond, DMSO/TFA, H2O/DMSO/TFA 75:25:0.1.
Data set [2] addresses T1, recombinant human thymidylate synthase (hTS) (Homo sapiens, UniProt P04818).
T1 construct: made in house
Description: hTS inhibition assay (spectrophotometric, absorbance at 340 nm). Type of data set: biochemical.

Data set [3] concerns the target T1, recombinant human thymidylate synthase (hTS). The data set is described as above. Type of data set: biochemical. How it is done: hTS was purified as previously reported. The enzyme solution was thawed the day of the experiment and the enzyme concentration was determined by UV−Vis spectroscopy (Varian Cary 100, Agilent, Santa Clara, CA, USA) using ε280 = 89000 M^−1 cm^−1 and Mr = 74 229. The thawed protein solution was kept constantly at 4 °C. In this condition, the enzyme was able to reproduce normal kinetic activity values (KM dUMP = 10−12 μM, KM mTHF = 4−6 μM, kcat = 0.8−0.9 s^−1). The peptide solution was mixed or vortexed in order to help solubilization; the precise concentration was determined through UV−Vis spectroscopy. A stock solution of mTHF was prepared in carbonate buffer. The stock was prepared in the range of 5 to 6 mM. A stock solution of dUMP was prepared in bidistilled water in the range of 10−12 mM. Peptide inhibitors were tested without incubation with hTS in […], at 25 °C. A 1 mL amount of assay buffer consisted of 50 mM TES, pH 7.4, containing 25 mM MgCl2, 6.5 mM HCHO, 1 mM EDTA, 75 mM β-mercaptoethanol (β-ME), 0.120 mM dUMP, and 0.060 mM mTHF. Following the addition of the enzyme (300 nM) and inhibitor mixture, the absorbance was monitored at 340 nm in a UV−Vis spectrophotometer for 3 min. In the control sample, an equal aliquot of enzyme alone was added. hTS activity inhibition percentages (I%) values were measured at 0.100−3000 µM concentration of inhibitor. […] The kinetic inhibition pattern was studied for compound 7 [12]. The inhibition values are expressed as mean ± SEM; n = 3.
This is another data set of the same source.

The next data set relates to IGROV-1 cells. As to the kind of experiment: Cytotoxicity, crystal violet cell growth assay, peptides transfected with SAINT-PhD. Type of data set: cell-based, human. Particulars: at 10 and 25 µM, ranking among the 10 cPs, SAINT-PhD delivery. The protocol:
The IGROV-1, A2780, and A2780/CP human ovarian cancer cell lines were grown as monolayer in RPMI 1640 medium containing 10% heat-inactivated fetal bovine serum and 50 µg/mL gentamycin sulfate (Euroclone, Devon, UK). Cultures were equilibrated with humidified 5% CO2 in air at 37 °C. The cDDP-resistant variant A2780/CP cell line, derived from the parent A2780 cell line, is about 10-fold resistant to cDDP and was developed by monthly exposure to cDDP, followed by chronic exposure to stepwise increases in cDDP concentration. All studies were performed in Mycoplasma negative cells, as routinely determined with the MycoAlert Mycoplasma detection kit (Lonza, Walkersville, MD, USA).
Treatment with each peptide was performed according to the standard transfection protocol of the SAINT-PhD delivery system (Synvolux Therapeutics, Leiden, Netherlands). Complexes of peptide (µg) with SAINT-PhD (µL) were prepared at appropriate ratios corresponding to the approximate µM concentrations indicated. For each protein sample, complexes were prepared as follows: for the treatment of a 24-well plate, the appropriate amount of each peptide was diluted in HBS, then SAINT-PhD was pipetted into the solution without vortexing; then, the mixture was incubated for 5 min at room temperature, and filled up to 500 µL with serum-free medium. The culture medium was aspirated from the cells, the SAINT-PhD/peptide complex was added to the wells and incubated 4 h (37 °C, 5% CO2). Afterward, complete RPMI was added to reach the appropriate volume for maintaining the cell culture for the duration of the experiments.
Cell growth was determined using a modified crystal violet assay. On selected days, the tissue culture medium was removed, and the cell monolayer fixed with methanol and stained with 0.2% crystal violet solution in 20% methanol for at least 30 min. After being washed several times with distilled water to remove excess dye, the cells were left to dry. The incorporated dye was solubilized in acidified isopropanol (1N HCl: 2-propanol, 1:10). After appropriate dilution, absorbance was determined spectrophotometrically at 540 nm. The extracted dye was proportional to cell biomass. The percentage of cytotoxicity was calculated by comparing the absorbance of cultures exposed to the drug to unexposed (control) cultures.

T1 sequence (P04818 whole entry): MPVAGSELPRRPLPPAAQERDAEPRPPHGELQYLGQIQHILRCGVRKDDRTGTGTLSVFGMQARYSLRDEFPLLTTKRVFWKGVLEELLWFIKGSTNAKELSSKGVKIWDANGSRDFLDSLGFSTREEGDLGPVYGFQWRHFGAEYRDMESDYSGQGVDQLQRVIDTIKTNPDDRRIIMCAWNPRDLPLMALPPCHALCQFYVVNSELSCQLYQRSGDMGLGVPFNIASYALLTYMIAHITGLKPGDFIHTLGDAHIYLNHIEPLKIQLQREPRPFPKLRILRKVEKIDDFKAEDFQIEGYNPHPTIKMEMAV

In the case of `CC(C)C[C@@H]1NC(=O)[C@H](CCC(N)=O)NC(=O)[C@@H]2CCCN2C(=O)[C@@H](NC(=O)[C@@H](N)CC(C)C)CSSC[C@@H](C(=O)N[C@@H](CCC(N)=O)C(=O)N[C@@H](CCCNC(=N)N)C(=O)O)NC1=O` [Leu-c[Cys-Pro-Gln-Leu-Cys-]Gln-Arg], in data set [1] (from H-Leu-Cys-Pro-Gln-Leu-Cys-Gln-Arg-OH, 17-membered ring, 1.04 mM), the ring closure, yield after HPLC turned out to be 25%. Compound `CC(C)C[C@@H]1NC(=O)[C@H](CCC(N)=O)NC(=O)[C@@H]2CCCN2C(=O)[C@@H](NC(=O)[C@@H](N)CC(C)C)CSSCCNC(=O)[C@H](CCCNC(=N)N)NC(=O)[C@H](CCC(N)=O)NC(=O)[C@H](Cc2ccc(O)cc2)NC1=O` [Leu-c[Cys-Pro-Gln-Leu-Tyr-Gln-Arg-CAM]] had a ring closure, yield after HPLC in data set [1] (from H-Leu-Cys-Pro-Gln-Leu-Tyr-Gln-Arg-NHCH2CH2SH, 26-membered ring, 0.93 mM) of 10%. In the case of `CC(C)C[C@@H]1NC(=O)[C@H](CCC(N)=O)NC(=O)[C@@H]2CCCN2C(=O)[C@H](CO)NC(=O)[C@@H](N)CSSC[C@@H](C(=O)O)NC(=O)[C@H](CCC(N)=O)NC(=O)[C@H](Cc2ccc(O)cc2)NC1=O` [c[Cys-Ser-Pro-Gln-Leu-Tyr-Gln-Cys]], the ring closure, yield after HPLC in data set [1] (from H-Cys-Ser-Pro-Gln-Leu-Tyr-Gln-Cys-OH, 26-membered ring, 1.06 mM) turned out to be 25%. In data set [1] (from H-Leu-Ser-Cys-dGln-Leu-Tyr-Cys-Arg-OH, 17-membered ring, 1.01 mM), `CC(C)C[C@@H]1NC(=O)[C@@H](CCC(N)=O)NC(=O)[C@@H](NC(=O)[C@H](CO)NC(=O)[C@@H](N)CC(C)C)CSSC[C@@H](C(=O)N[C@@H](CCCNC(=N)N)C(=O)O)NC(=O)[C@H](Cc2ccc(O)cc2)NC1=O` [Leu-Ser-c[Cys-D-Gln-Leu-Tyr-Cys-]Arg] displayed a ring closure, yield after HPLC of 29%. In data set [1] (from H-Leu-Ser-Cys-dGln-Leu-Tyr-Gln-Cys-OH, 20-membered ring, 1.04 mM), `CC(C)C[C@@H]1NC(=O)[C@@H](CCC(N)=O)NC(=O)[C@@H](NC(=O)[C@H](CO)NC(=O)[C@@H](N)CC(C)C)CSSC[C@@H](C(=O)O)NC(=O)[C@H](CCC(N)=O)NC(=O)[C@H](Cc2ccc(O)cc2)NC1=O` [Leu-Ser-c[Cys-D-Gln-Leu-Tyr-Gln-Cys-]] had a ring closure, yield after HPLC of 18%. Consider `CC(C)C[C@@H]1NC(=O)[C@H](CCC(N)=O)NC(=O)[C@@H]2CCCN2C(=O)[C@@H](NC(=O)[C@@H](N)CC(C)C)CSSC[C@@H](C(=O)O)NC(=O)[C@H](CCC(N)=O)NC(=O)[C@H](Cc2ccc(O)cc2)NC1=O` [Leu-c[Cys-Pro-Gln-Leu-Tyr-Gln-Cys-]], for which the ring closure, yield after HPLC in data set [1] (from H-Leu-Cys-Pro-Gln-Leu-Tyr-Gln-Cys-OH, 23-membered ring, 1.03 mM) stood at 22%. For `CC(C)C[C@@H]1NC(=O)[C@@H](CCC(N)=O)NC(=O)[C@@H](NC(=O)[C@H](CO)NC(=O)[C@@H](N)CC(C)C)CSSC[C@@H](C(=O)N[C@@H](CCCNC(=N)N)C(=O)O)NC(=O)[C@H](Cc2ccc(O)cc2)NC1=O` [Peptide 5, Leu-Ser-c[Cys-D-Gln-Leu-Tyr-Cys]-Arg] (H-LSC[dQ]LYCR-OH; disulfide 3-7; N-terminus assumed), the “% inhibition of hTS” value is “N.I. at 500 µM and r.t. N.I. at 500 µM and 37 °C under stirring” in data set [2] (at 500 µM and 37 °C under stirring); “N.I. at 500 µM and r.t. N.I. at 500 µM and 37 °C under stirring” in data set [3] (at 500 µM and r.t.). `CC(C)C[C@@H]1NC(=O)[C@H](CCC(N)=O)NC(=O)[C@@H]2CCCN2C(=O)[C@@H](NC(=O)[C@@H](N)CC(C)C)CSSC[C@@H](C(=O)N[C@@H](CCCNC(=N)N)C(=O)O)NC(=O)[C@H](Cc2ccc(O)cc2)NC1=O` [Peptide 7, Leu-c[Cys-Pro-Gln-Leu-Tyr-Cys]-Arg] (H-LCPQLYCR-OH; disulfide 2-7): in data set [3] (at 100 µM and r.t. under stirring), the inhibition at 100 µM stood at 59%. The inhibition at 500 µM in data set [3] (at 500 µM and r.t.) is 76%. Further, the Ki in data set [3] (kinetic inhibition pattern, Figure S1, read-out: apparent KI) was in the range of 120 to 150 µM. For the same compound, the “cytotoxicity (in words)” value in the data set with IGROV-1 cells is “intermediate cytotoxicities”. Regarding `CC(C)C[C@@H]1NC(=O)[C@H](CCC(N)=O)NC(=O)[C@@H](NC(=O)[C@H](CO)NC(=O)[C@@H](N)CC(C)C)CSSCCNC(=O)[C@H](CCCNC(=N)N)NC(=O)[C@H](CCC(N)=O)NC(=O)[C@H](Cc2ccc(O)cc2)NC1=O` [Leu-Ser-c[Cys-Gln-Leu-Tyr-Gln-Arg-CAM-]], in data set [1] (from H-Leu-Ser-Cys-Gln-Leu-Tyr-Gln-Arg-NHCH2CH2SH, 23-membered ring, 0.94 mM), the ring closure, yield after HPLC was determined as 15%. Compound `CC(C)C[C@@H]1NC(=O)[C@H](CCC(N)=O)NC(=O)[C@@H]2CCCN2C(=O)[C@@H](NC(=O)[C@@H](N)CC(C)C)CSSC[C@@H](C(=O)N[C@@H](CCCNC(=N)N)C(=O)O)NC(=O)[C@H](Cc2ccc(O)cc2)NC1=O` [Leu-c[Cys-Pro-Gln-Leu-Tyr-Cys-]Arg] registered a ring closure, yield after HPLC in data set [1] (from H-Leu-Cys-Pro-Gln-Leu-Tyr-Cys-Arg-OH, 20-membered ring, 1.0 mM) of 18%. The compound `CC(C)C[C@@H]1NC(=O)[C@H](CCC(N)=O)NC(=O)[C@H](C)NC(=O)[C@@H](NC(=O)[C@@H](N)CC(C)C)CSSC[C@@H](C(=O)O)NC(=O)[C@H](CCC(N)=O)NC(=O)[C@H](Cc2ccc(O)cc2)NC1=O` [Leu-c[Cys-Ala-Gln-Leu-Tyr-Gln-Cys]] gave a ring closure, yield after HPLC in data set [1] (from H-Leu-Cys-Ala-Gln-Leu-Tyr-Gln-Cys-OH, 23-membered ring, 1.06 mM) of 30%. `CC(C)C[C@@H]1NC(=O)[C@@H](CCC(N)=O)NC(=O)[C@@H](NC(=O)[C@H](CO)NC(=O)[C@@H](N)CC(C)C)CSSCCNC(=O)[C@H](CCCNC(=N)N)NC(=O)[C@H](CCC(N)=O)NC(=O)[C@H](Cc2ccc(O)cc2)NC1=O` [Leu-Ser-c[Cys-D-Gln-Leu-Tyr-Gln-Arg-CAM-]] had a ring closure, yield after HPLC in data set [1] (from H-Leu-Ser-Cys-dGln-Leu-Tyr-Gln-Arg-NHCH2CH2SH, 23-membered ring, 0.94 mM) of 13%. On to `CC(C)C[C@@H]1NC(=O)[C@H](CCC(N)=O)NC(=O)[C@@H](NC(=O)[C@H](CO)NC(=O)[C@@H](N)CC(C)C)CSSCCNC(=O)[C@H](CCCNC(=N)N)NC(=O)[C@H](CCC(N)=O)NC(=O)[C@H](Cc2ccc(O)cc2)NC1=O` [Peptide 1, Leu-Ser-c[Cys-Gln-Leu-Tyr-Gln-Arg-CAM]] (H-LSCQLYQR-Cysteamide; disulfide 3-C), for which the IC50 in data set [2] (room temperature (20–22 °C) under stirring, standard error ±20% of the value) was 2.12 mM. Moreover, in data set [3] (at 400 µM and r.t. under stirring), the inhibition at 400 µM was found to be 25%. Consider `CC(C)C[C@@H]1NC(=O)[C@@H](CCC(N)=O)NC(=O)[C@@H](NC(=O)[C@H](CO)NC(=O)[C@@H](N)CC(C)C)CSSCCNC(=O)[C@H](CCCNC(=N)N)NC(=O)[C@H](CCC(N)=O)NC(=O)[C@H](Cc2ccc(O)cc2)NC1=O` [Peptide 3, Leu-Ser-c[Cys-D-Gln-Leu-Tyr-Gln-Arg-CAM]] (H-LSC[dQ]LYQR-Cysteamide; disulfide 3-C), for which the “% inhibition of hTS” value in data set [3] (at 500 µM and r.t.) was “inactive”.

In general, inhibition refers to the percentage by which the read-out fell short of the control. Broadly, the IC50 is the concentration needed to halve the response being measured.
